Laboratory results from article PMC4291348, “A Continuous Enzyme-Coupled Assay for Triphosphohydrolase Activity of HIV-1 Restriction Factor SAMHD1” (Antimicrobial Agents and Chemotherapy, 2014).
“And” between values parts separate entries of the source, which are not always exact repeats. Identical values can stand only once. “Also recorded” adds a separate entry of the source.

Assays:
SAMHD1 [1] = test system: T1, SAMHD1; test: Malachite green endpoint Ppx1-coupled assay of SAMHD1 (compound screening); assay type: biochemical, human; conditions: for SAMHD1 activation (TTP hydrolysis relative to control GTP): 200 μM compound as activator, 1 mM TTP substrate; for SAMHD1 inhibition (TTP hydrolysis after inclusion of test compound): 200 μM compound, 200 μM GTP, 1 mM TTP; for Hydrolysis by GTP-activated SAMHD1: 1 mM compound plus 200 μM GTP, relative to control TTP
T1 construct: The catalytic domain of SAMHD1 (residues 115 to 626) was expressed and purified as previously described; made in house
Method: The substrates and compounds were obtained from Jena Biosciences (Jena, Germany) or Thermo Fisher Scientific (Massachusetts, USA). The phosphate concentration was determined using the recommended protocol supplied with the PiColorLock gold phosphate detection system from Innova Biosciences (Cambridge, United Kingdom). Time-course assays were conducted in low-protein-binding 96-well black plates (Corning, USA). The absorbance was measured using a Tecan Safire^2 (Männedorf, Switzerland) plate reader at 630 nm in a fixed-wavelength mode. All the assays were prepared as master mixes immediately before use in a reaction buffer containing 20 mM Tris-HCl, 150 mM NaCl, 5 mM MgCl2, and 2 mM TCEP at pH 7.5.
To determine the triphosphohydrolase activity of SAMHD1, 1 mM substrate and 200 μM allosteric activator were incubated with 5 μM SAMHD1 and 500 nM Ppx1. Fixed-volume samples were removed at predetermined time intervals, and activity was stopped by the addition of 0.25 vol of gold mix (PiColorLock gold) through acidification to a pH of approximately 1.0. After 5 min of incubation at 25°C, 0.1 volume of stabilizer solution (PiColorLock gold) was added, and the mixtures were incubated for a further 30 min at 25°C. The final absorbance was measured as 630 nm by scanning 10 times and averaging data. Each assay was completed in triplicate. The triplicated readings were averaged and normalized by subtracting the average zero-standard optical density. The averaged optical density reading was then compared to a known standard of monophosphate to calculate the concentration of phosphate released.
To determine whether a compound was both a substrate and an allosteric activator of SAMHD1, only 1 mM of the compound of interest was included in the reaction. To test if a compound was a substrate for activated SAMHD1, 1 mM of the compound plus 200 μM GTP was included.

[2] = target: T2, SAMHD1 (residues 115 to 626) (Homo sapiens, UniProt Q9Y3Z3); test: Continuous enzyme-coupled (Ppx1 / MDCC-PBP) real-time assay of SAMHD1 triphosphohydrolase activity; assay type: biochemical; conditions: for KA, apparent dissociation constant for activator binding (activator concentration for half-maximal hydrolysis of TTP substrate): TTP substrate 1 mM, activator varied; for Inhibitory effect on steady-state TTP hydrolysis by GTP-activated SAMHD1 (in words): increasing amounts of compound
T2 construct: The catalytic domain of SAMHD1 (residues 115 to 626) was expressed and purified as previously described; made in house
T2 sequence (Q9Y3Z3 115-626): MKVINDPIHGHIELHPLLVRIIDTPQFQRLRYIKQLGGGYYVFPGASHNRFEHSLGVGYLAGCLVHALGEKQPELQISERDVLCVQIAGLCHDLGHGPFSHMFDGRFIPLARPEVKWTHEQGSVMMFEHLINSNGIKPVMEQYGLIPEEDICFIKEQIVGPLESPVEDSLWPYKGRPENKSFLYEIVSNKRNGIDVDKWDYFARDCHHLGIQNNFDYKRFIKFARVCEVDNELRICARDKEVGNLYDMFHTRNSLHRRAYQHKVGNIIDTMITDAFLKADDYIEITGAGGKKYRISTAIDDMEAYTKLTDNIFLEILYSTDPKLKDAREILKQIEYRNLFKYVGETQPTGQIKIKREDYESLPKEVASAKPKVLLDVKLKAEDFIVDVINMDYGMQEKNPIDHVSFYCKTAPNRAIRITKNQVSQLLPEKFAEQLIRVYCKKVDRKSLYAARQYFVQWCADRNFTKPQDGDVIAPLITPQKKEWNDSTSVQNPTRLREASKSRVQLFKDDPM
Method: The steady-state kinetics of SAMHD1 were determined by a coupled-enzyme assay using Ppx1 and a fluorescent phosphate biosensor, MDCC-PBP. The reactions were set up in 20-μl volumes in 384-well low-protein-binding microplates (Corning, USA), and the time-dependent fluorescence signal was measured using a Tecan Saffire^2 multiwell plate reader (Männedorf, Switzerland). Solutions containing SAMHD1 (residues 115 to 626), Ppx1, MDCC-PBP, an activator, and an inhibitor (if present) were incubated for 5 min at 25°C before the reaction was initiated by the addition of the substrate. The final concentrations were 100 nM SAMHD1, 10 nM Ppx1, and 40 μM MDCC-PBP. Depending on the experiment, the concentration of the substrate, the activator, or the inhibitor varied while the substrate and/or the activator was held constant at 1 mM and 0.2 mM, respectively. The fluorescence intensity was recorded at 430 nm for excitation and 465 nm for emission wavelengths, with a 7-nm slit width, at 8- to 10-s time intervals over a period of 10 to 30 min. The standard curves were obtained by incubating 40 μM MDCC-PBP with different concentrations of phosphate (Pi) and measuring the fluorescence, as discussed above. The fluorescence response was linear and in the range of 0 to 20 μM Pi.
The steady-state rates were obtained from the time courses of Pi formation by linear regression of the data points in the linear phase of the reaction. Rates were divided by the SAMHD1 concentration and were plotted versus the activator, substrate, or inhibitor concentration. Apparent dissociation constants for the activator (KA) or the substrate binding (KS) and the catalytic constant (kcat) were determined by nonlinear least-squares fitting using either a hyperbolic or a Hill-function equation in the software package GraFit 7.0.3 (Erithacus Software, United Kingdom) ([22]). […] Data from the three different experiments were analyzed by a least-squares fit using the equation for competitive inhibition. The fits for the three data sets yielded invariant values for the inhibition constants (Ki), supporting a competitive mode of inhibition. All measurements were performed in triplicate in the reaction buffer.

HIV-1 = test system: HIV-1; design: method as in PMID 24867973, PMID 23744077, PMID 24913159; conditions: monocyte-derived macrophages and activated CD4+ T cells; cited from earlier work
SAMHD1 [3] = test system: T1, SAMHD1; conditions: cited from earlier work; for Hydrolytic activity of SAMHD1 on the compound: in vitro
Ppx1 = target: T3, Ppx1 (Saccharomyces cerevisiae, UniProt P38698); test: Ppx1 triphosphate hydrolysis kinetics and specificity controls; assay type: biochemical; conditions: recombinant Ppx1 0.3 nM, 25°C, MDCC-PBP
T3 construct: StrepII-tag (N); made in house; host or cells: Escherichia coli BL21(DE3)
T3 sequence (P38698 whole entry): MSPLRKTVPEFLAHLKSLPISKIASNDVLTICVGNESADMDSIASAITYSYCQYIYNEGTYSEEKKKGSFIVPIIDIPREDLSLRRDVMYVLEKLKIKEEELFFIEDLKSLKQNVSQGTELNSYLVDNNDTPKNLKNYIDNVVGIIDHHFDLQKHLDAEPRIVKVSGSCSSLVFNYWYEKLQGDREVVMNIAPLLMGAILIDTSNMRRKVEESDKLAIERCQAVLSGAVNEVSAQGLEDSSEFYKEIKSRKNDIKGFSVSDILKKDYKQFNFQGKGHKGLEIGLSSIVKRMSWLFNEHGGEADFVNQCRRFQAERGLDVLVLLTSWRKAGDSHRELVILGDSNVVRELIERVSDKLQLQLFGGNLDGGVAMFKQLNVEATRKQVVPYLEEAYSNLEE
Method: Sample controls were used to check for potential Ppx1 activity on the compounds and the reagents. In these assays, the 200 μM compound was incubated in a reaction buffer at 25°C for 30 s with 500 nM Ppx1, either with or without 200 μM triphosphate. The Ppx1 activity was determined by measuring phosphate release with malachite green detection, as described for the coupled assay above.
The initial control experiments were undertaken to assess the suitability of Ppx1 as a coupled enzyme for the assay. The Km for Ppx1 hydrolysis of a polyphosphate ranged from 0.004 to 140 μM ([23]) for P250 to P3 substrates, with kcat values between 180 and 1,500 s^−1 at 37°C, depending on the preparation ([23][–][25]). […] Over the triphosphate substrate concentration range employed in the assays, this rate is substantially higher than that of SAMHD1 dNTP hydrolysis (kcat, ∼1.3 s^−1) and so is suitable as the coupling enzyme in an assay. […]
FIG 2 Kinetics and specificity of Ppx1 hydrolysis. (A) Steady-state kinetics of Ppx1-catalyzed triphosphate cleavage to Pi and PPi were measured using 40 μM MDCC-PBP, 0.3 nM Ppx1, and various concentrations of the triphosphate. The error bars represent the SEM of three independent measurements recorded at each substrate concentration. […] (B) Specificity of Ppx1 hydrolysis was measured using the malachite green endpoint assay. […]

With `Nc1nc2c(ncn2COC(CO)COP(=O)(O)OP(=O)(O)OP(=O)(O)O)c(=O)[nH]1` (stereo not drawn) [Ganciclovir-TP, ganciclovir triphosphate] the “SAMHD1 activation (TTP hydrolysis relative to control GTP)” value (SAMHD1 [1]) was “no activation”, the “SAMHD1 inhibition (TTP hydrolysis after inclusion of test compound)” value (shortened to “SAMHD1 inhibition”) (SAMHD1 [1]) was “not significantly inhibited” and the “Hydrolysis by GTP-activated SAMHD1” value (SAMHD1 [1]) was “refractory to hydrolysis”. For the same compound, the “Ki, inhibition constant” value ([2]; GTP activator, TTP substrate (1, 0.3, 0.1 mM), competitive inhibition model) was “No inhibition”, the “KA, apparent dissociation constant for activator binding (activator concentration for half-maximal hydrolysis of TTP substrate)” value (“KA, apparent dissociation constant” below) ([2]; 25°C) was “No activation” and the “KA, apparent dissociation constant” value ([2]; 25°C, listed as ganciclovir-TP) was “unable to activate SAMHD1”. For the same compound, the “Inhibitory effect on steady-state TTP hydrolysis by GTP-activated SAMHD1 (in words)” value ([2]; GTP activator, TTP substrate) was “no effect”.

In the case of `Cc1cn([C@H]2C[C@H](N=[N+]=[N-])[C@@H](CO)O2)c(=O)[nH]c1=O` [AZT], the “Change in efficacy against HIV-1 infection on downregulation of SAMHD1” value (HIV-1) is listed as “large decrease in the efficacy”.

For `Cc1cn([C@H]2C[C@H](N=[N+]=[N-])[C@@H](CO[P@](=O)(O)O[P@](=O)(O)OP(=O)(O)O)O2)c(=O)[nH]c1=O` [AZT-TP, azidothymidine triphosphate], the “Hydrolytic activity of SAMHD1 on the compound” value (“Hydrolytic activity of SAMHD1” below) (SAMHD1 [3]) is listed as “little or no hydrolytic activity”.

In the case of `Cc1cn([C@H]2C[C@H](O)[C@@H](COP(=O)(O)OP(=O)(O)OP(=O)(O)O)O2)c(=O)[nH]c1=O` [TTP], the “nS, Hill coefficient for substrate binding” value ([2]; Acyclovir-TP as activator, TTP substrate) is reported as 3.0 ± 0.1, the “KS, apparent dissociation constant for substrate binding” value (“KS, apparent dissociation constant” for short) ([2]; Acyclovir-TP as activator, TTP substrate, Hill-modified model) is reported as 353 ± 16 µM and the “KS, apparent dissociation constant” value ([2]; GTP activator 0.2 mM, 25°C) is reported as 96.3 ± 1.7 µM.

With `O=P(O)(O)OP(=O)(O)OP(=O)(O)O` [triphosphate] the “kcat of Ppx1 triphosphate hydrolysis” value (Ppx1) was 338 s⁻¹ and 338 ± 31 s⁻¹.

With `Nc1nc2c(ncn2COCCOP(=O)(O)OP(=O)(O)OP(=O)(O)O)c(=O)[nH]1` [Acyclovir-TP, acyclovir triphosphate] the “SAMHD1 inhibition” value (SAMHD1 [1]) was “not significantly inhibited”, the “Hydrolysis by GTP-activated SAMHD1” value (SAMHD1 [1]) was “refractory to hydrolysis; also recorded: not a substrate” and the EC50 [2] was 15.6 ± 2.2 µM.

For `Nc1nc(Cl)nc2c1ncn2[C@@H]1O[C@H](COP(=O)(O)OP(=O)(O)OP(=O)(O)O)[C@@H](O)[C@@H]1F` [Clofarabine-TP, clofarabine triphosphate], the “SAMHD1 activation (TTP hydrolysis relative to control GTP)” value (SAMHD1 [1]) was “no activation”, the “SAMHD1 inhibition” value (SAMHD1 [1]) was “diminished only slightly” and the “Hydrolysis by GTP-activated SAMHD1” value (SAMHD1 [1]) was “hydrolyzed at a rate comparable to that of the control TTP; also recorded: hydrolyzed by SAMHD1 at a rate comparable to that of natural dNTP substrates”. The “nS, Hill coefficient for substrate binding” value ([2]; GTP activator 0.2 mM) was 2.8 ± 0.1 and the “KS, apparent dissociation constant” value ([2]; GTP activator 0.2 mM, 25°C) was 67.6 ± 8.9 µM.

For `Nc1nc2c(ncn2[C@@H]2O[C@H](COP(=O)(O)OP(=O)(O)OP(=O)(O)O)[C@@H](O)[C@H]2O)c(=O)[nH]1` [GTP], the “Activation of SAMHD1” value (SAMHD1 [3]) is listed as “activates SAMHD1 as effectively as dGTP” and the “KA, apparent dissociation constant” value ([2]; 25°C) is listed as 32.0 ± 4.2 µM.

With `Nc1ncnc2c1ncn2[C@H]1C[C@H](O)[C@@H](COP(=O)(O)NP(=O)(O)OP(=O)(O)O)O1` [dApNHpp] the “SAMHD1 activation (TTP hydrolysis relative to control GTP)” value (SAMHD1 [1]) was “no activation”, the “SAMHD1 inhibition” value (SAMHD1 [1]) was “substantial reduction in TTP hydrolysis to near background levels” and the “Hydrolysis by GTP-activated SAMHD1” value (SAMHD1 [1]) was “refractory to hydrolysis”. The “Inhibitory effect on steady-state TTP hydrolysis by GTP-activated SAMHD1 (in words)” value ([2]; GTP activator, TTP substrate) was “potent inhibition; also recorded: strong competitive inhibitor” and the Ki ([2]; read-out: Ki, inhibition constant) was 1.13 ± 0.07 µM.

For `Nc1ccn([C@H]2CS[C@@H](COP(=O)(O)OP(=O)(O)OP(=O)(O)O)O2)c(=O)n1` [3TC-TP, 2′,3′-dideoxy-3′-thiacytidine triphosphate], the “Hydrolytic activity of SAMHD1” value (SAMHD1 [3]) is given as “little or no hydrolytic activity”.

For `Cc1cn([C@H]2C=C[C@@H](COP(=O)(O)OP(=O)(O)OP(=O)(O)O)O2)c(=O)[nH]c1=O` [d4T-TP, 2′,3′-didehydro-2′,3′-dideoxythymidine triphosphate], the “Hydrolytic activity of SAMHD1” value (SAMHD1 [3]) is listed as “little or no hydrolytic activity”.
